Measured values reported in ChEMBL document CHEMBL1130496, “Synthesis of N-desmethyl PNQX: elaboration into an immunogenic conjugate and a radioiodinated ligand; radioimmunoassay for the AMPA/NMDA antagonist, PNQX” (Bioorg Med Chem Lett, 1997).

Experiments:
[1] = target: Glutamate receptor ionotropic, NMDA 2C (Rattus norvegicus) (UniProt Q00961); experiment: Effective dose required for the action of NMDA receptor activity in maximal electroshock anticonvulsant assay; type: functional
[2] = target: Glutamate receptor 4 (Homo sapiens) (UniProt P48058); experiment: Effective dose required for the action of AMPA receptor antagonistic activity in maximal electroshock anticonvulsant assay; type: functional
Chain of Glutamate receptor 4 (Homo sapiens) (P48058 whole entry): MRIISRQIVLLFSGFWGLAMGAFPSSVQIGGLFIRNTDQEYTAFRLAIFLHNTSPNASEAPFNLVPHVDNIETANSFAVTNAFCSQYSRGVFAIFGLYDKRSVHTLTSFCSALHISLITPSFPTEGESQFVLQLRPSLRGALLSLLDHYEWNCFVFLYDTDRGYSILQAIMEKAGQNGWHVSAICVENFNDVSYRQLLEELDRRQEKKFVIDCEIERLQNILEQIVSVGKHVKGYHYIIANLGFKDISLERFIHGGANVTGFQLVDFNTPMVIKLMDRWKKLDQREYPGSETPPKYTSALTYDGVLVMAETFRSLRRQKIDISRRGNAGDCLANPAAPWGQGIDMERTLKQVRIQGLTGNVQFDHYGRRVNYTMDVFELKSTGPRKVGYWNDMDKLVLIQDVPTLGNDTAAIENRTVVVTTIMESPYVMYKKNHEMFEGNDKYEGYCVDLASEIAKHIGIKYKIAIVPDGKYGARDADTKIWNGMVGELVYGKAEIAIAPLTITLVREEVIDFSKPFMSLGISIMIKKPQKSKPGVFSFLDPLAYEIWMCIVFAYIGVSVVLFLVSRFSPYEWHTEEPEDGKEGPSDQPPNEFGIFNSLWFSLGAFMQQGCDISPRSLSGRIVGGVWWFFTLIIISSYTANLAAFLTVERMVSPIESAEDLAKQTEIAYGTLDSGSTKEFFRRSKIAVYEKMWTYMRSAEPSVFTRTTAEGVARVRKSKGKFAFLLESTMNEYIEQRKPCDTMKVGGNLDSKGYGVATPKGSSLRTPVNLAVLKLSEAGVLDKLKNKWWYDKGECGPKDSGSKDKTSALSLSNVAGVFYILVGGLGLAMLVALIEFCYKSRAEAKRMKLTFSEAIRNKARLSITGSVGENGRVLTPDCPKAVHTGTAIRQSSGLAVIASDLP

Chain of Glutamate receptor ionotropic, NMDA 2C (Rattus norvegicus) (Q00961 20-1237 limits assumed): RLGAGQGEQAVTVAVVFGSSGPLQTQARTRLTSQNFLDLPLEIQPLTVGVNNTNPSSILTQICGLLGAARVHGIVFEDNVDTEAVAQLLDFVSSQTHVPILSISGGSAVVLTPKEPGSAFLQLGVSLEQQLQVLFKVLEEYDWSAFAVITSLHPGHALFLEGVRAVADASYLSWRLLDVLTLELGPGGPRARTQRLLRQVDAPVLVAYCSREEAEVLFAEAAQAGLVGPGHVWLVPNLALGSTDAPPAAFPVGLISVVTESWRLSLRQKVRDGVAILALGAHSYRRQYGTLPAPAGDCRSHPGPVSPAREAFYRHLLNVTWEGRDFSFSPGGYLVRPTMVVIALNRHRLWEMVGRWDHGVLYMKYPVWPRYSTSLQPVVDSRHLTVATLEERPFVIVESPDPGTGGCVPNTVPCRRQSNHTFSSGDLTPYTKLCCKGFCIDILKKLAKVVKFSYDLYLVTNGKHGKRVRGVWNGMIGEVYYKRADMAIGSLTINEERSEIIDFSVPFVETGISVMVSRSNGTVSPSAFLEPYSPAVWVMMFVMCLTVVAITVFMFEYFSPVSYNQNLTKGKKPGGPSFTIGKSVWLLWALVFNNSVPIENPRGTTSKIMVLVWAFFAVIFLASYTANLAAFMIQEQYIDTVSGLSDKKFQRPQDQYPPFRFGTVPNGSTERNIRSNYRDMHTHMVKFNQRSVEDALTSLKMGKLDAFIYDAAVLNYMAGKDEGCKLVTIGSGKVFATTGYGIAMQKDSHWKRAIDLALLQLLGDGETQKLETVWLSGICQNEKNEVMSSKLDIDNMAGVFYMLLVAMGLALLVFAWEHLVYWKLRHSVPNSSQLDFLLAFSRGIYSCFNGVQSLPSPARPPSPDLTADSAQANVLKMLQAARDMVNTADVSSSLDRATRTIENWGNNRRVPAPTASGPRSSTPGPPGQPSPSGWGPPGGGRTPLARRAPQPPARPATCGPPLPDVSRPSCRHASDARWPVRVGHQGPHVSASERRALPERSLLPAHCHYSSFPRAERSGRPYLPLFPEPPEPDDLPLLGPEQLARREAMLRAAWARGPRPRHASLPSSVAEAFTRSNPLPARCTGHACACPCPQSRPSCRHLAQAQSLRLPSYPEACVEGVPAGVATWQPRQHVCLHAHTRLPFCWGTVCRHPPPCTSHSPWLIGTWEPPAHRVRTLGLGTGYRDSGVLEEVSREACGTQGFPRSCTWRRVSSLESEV

NS(=O)(=O)c1cccc2c1c([N+](=O)[O-])cc1nc(O)c(O)nc12
ED50 [1]: 13.1 mg/kg

CN1CCc2c([N+](=O)[O-])cc3nc(O)c(O)nc3c2C1
ED50 [2]: 0.44 mg/kg
